Test system: C. elegans strain CL4176 expressing amyloid-beta peptide in muscle cells
Test: Paralysis assay in transgenic C. elegans strain CL4176 expressing human Aβ1-42 peptide in muscle cells
Type: in vivo
Settings: 1 mg/ml sodium propionate in nematode growth medium; after 24 hours; Aβ1-42 expression induced by temperature control
Text: The biological model C. elegans was used to study the effects of sodium propionate on amyloid-beta associated pathology. C. elegans has become an excellent and well recognized model for studying neurodegenerative diseases (Zhou et al., 2011; Hekimi et al., 2011; Kaletsky & Murphy, 2010). This nematode contains 302 neuron cells with neurotransmitters and neuropeptides similar to the mammalian nervous system. All the basic functions in the worm such as development, feeding and movement are controlled by the nervous system. The model is particularly useful for studying amyloid-beta associated pathologies, since transgenic strains have been generated able to express the human Aβ1-42 peptide in muscle cells, producing a progressive paralysis in the nematodes as a result of toxic effects (Link, 1995). Therefore, this model using such strains is useful to study substances in view of their ability to reduce β-amyloid peptide cell toxicity.
In the present experiment, the transgenic C. elegans strain CL4176 expressing amyloid-beta peptide in muscle cells was used. The worms were cultured in plates with nematode growth medium (control) or in plates supplemented with different concentrations of sodium propionate (test substance). The expression of Aβ1-42 peptide was induced in the nematodes by temperature control, and the percentage of worms paralyzed was determined at different time points. […]

Compound: CCC(=O)[O-].[Na+] [sodium propionate]
- number of paralyzed C. elegans compared to the untreated Aβ1-42 peptide expressing C. elegans: significantly lower

— US20230038360A1, “COMPOSITION FOR THE TREATMENT OF AMYLOID-BETA ASSOCIATED DISEASES” (BASF SE, priority 2019, published 2023)
